Measured values taken from article PMC3073714 (Chemistry and physics of lipids, 2010).

Target: T1, DNA topoisomerase IB (LdTopIB) (Leishmania donovani, UniProt A0A3Q8IHS4+Q8WQM6)
T1 sequence (A0A3Q8IHS4 1-635): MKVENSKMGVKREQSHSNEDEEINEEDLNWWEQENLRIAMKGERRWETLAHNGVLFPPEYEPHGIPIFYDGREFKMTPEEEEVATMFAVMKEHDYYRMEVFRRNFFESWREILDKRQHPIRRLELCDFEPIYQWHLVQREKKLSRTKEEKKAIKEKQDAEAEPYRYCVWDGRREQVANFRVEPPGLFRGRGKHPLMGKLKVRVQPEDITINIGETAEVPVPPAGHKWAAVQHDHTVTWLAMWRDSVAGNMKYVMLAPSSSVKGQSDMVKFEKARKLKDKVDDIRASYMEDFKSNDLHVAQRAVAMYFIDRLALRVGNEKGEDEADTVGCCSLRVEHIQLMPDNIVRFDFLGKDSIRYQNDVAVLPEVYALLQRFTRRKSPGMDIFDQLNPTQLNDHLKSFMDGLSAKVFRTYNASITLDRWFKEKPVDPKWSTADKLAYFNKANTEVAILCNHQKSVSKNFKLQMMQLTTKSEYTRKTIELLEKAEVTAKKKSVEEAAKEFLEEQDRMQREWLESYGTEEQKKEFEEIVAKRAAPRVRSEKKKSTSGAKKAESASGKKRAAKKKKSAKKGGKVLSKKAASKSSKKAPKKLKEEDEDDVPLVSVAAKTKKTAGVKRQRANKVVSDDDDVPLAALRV
T1 sequence (Q8WQM6 1-262): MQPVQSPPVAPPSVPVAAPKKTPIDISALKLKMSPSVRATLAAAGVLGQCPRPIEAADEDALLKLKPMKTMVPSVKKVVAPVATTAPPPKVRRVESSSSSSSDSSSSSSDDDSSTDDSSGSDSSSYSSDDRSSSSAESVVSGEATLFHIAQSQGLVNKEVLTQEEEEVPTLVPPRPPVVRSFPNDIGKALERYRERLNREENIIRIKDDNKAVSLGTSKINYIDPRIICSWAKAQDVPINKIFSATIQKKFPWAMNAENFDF
Test: supercoiled plasmid DNA relaxation assay with purified recombinant enzyme
Type: biochemical

## CC(C)CCC/C=C\CCCCCCCCCC(=O)O [compound 1, (Z)-16-methyl-11-heptadecenoic acid]
  IC50: 62.3 ± 0.7 µM
